| Compound | melting point |
| --- | --- |
| O=c1[nH]c2cc(C(F)(F)F)c(C(F)(F)F)cc2[nH]c1=O | > 250 °C |
| CCn1cc(C(=O)O)c(=O)c2cc(F)c(N3CCC(CNCCO)C3)c(F)c21 (stereo not given) | 215 to 216 °C |
| Nc1ccc2c(c1)CS(=O)(=O)N2CCF | 119 to 121 °C |
| Cc1cc(Cl)cc(C)c1NC(=O)N(CCC(C)(C)C)Cc1ccc(CC(C)(C)C)cc1 | 148 to 150 °C |
| Nc1ccc2ccccc2c1S | 108 to 110 °C |
| Cc1ccc(O)c(CNc2nc(NC[C@@H](C)O)nc3c2ncn3C(C)C)c1 | 160 to 161 °C |
| Cc1cccc(N(C)C(=O)c2cc(=O)n(C)c3ccc(C(O)(c4ccc(Cl)cc4)c4cncn4C)cc23)c1 (stereo not given) | 185 °C |
| O=c1n(CCCCl)nc2n1-c1ccccc1OC2 | 77 to 78 °C |
| COc1ccc(OCC(O)CCN2CCN(c3ccccc3)CC2)cc1 (stereo not given) | 103 to 105 °C |
| CC(C)CN1C(=O)CN=C(N2CCN(C)CC2)c2ccccc21 | 134 to 136 °C |
| C=C1C[C@@H](O)[C@H](/C=C/[C@@H](O)CCCCC)[C@H]1Cc1cccc(OCc2ccccc2)c1 | 58 °C |
| Nc1nc(NCCO)c(Cl)nc1[N+](=O)[O-] | 196 to 197 °C |
| CCCCCCCCCCOC(=O)C1CCC(=O)N1 (stereo not given) | 34 to 35 °C |
| COc1cccc(NC(=O)NC2CC(c3ccccc3F)c3ccccc3N(CC(=O)NC(C)(C)C)C2=O)c1 (stereo not given) | 265 to 280 °C |
| CCOC(=O)c1nn(-c2ccc(C=O)cc2)nc1C | 97 to 99 °C |
| CC(C)Cn1c(CNC(=O)OC(C)(C)C)c(-c2ccccc2)c2cc(OC(C)(C)C(N)=O)ccc2c1=O | 219 to 220 °C |
| CC(NC(=O)c1cccnc1)c1ccccc1 (stereo not given) | 88 to 89 °C |
| CCOC(=O)c1cn(-c2cc(N)c(F)cc2F)c2c(OC)c(F)c(F)cc2c1=O | 159 to 162 °C |
| CC(C)C(NC(=O)c1ccc(C(=O)NCC(=O)O)cc1)C(=O)N(CC(=O)NC(C(=O)C(F)(F)F)C(C)C)C1Cc2ccccc2C1 (mixture of isomers) | 88 to 91 °C |
| Cc1cccc(N2CCN(c3ccc(=O)[nH]n3)CC2)c1 | 210 °C |
| CC(C)N=C(NC(C)C)ON=C1CCCCC1 | 45 to 48 °C |
| COC(=O)c1cc2ccnc(NS(=O)(=O)c3cccs3)c2[nH]1 | 159 to 160 °C |
| COC(=O)c1ccc(-c2nc(-c3ccc(Cl)s3)cs2)cc1 | 171 to 172 °C |
| Cc1c(CO)sc2cc(Br)ccc12 | 95 to 96 °C |
| CC(C(=O)O)c1ccc2nc(-c3ccc(Cl)cc3)oc2c1 (stereo not given) | 188 to 191 °C |

| Compound | melting point |
| --- | --- |
| NC(=O)c1cc([N+](=O)[O-])cc([N+](=O)[O-])c1Cl | 181 to 183 °C |
| CCC(=O)c1cc(O)cc2cc(-c3ccc(O)cc3)oc12 | 257 to 260 °C |
| COC(=C1NC(=O)C(=NO)C1=O)c1ccccc1 | 174 °C |
| Cn1cc(C(=O)NCc2ccc(Cl)cc2)c(=O)c2cc(CN3CCOCC3)cc(C#CCCO)c21 | 168 to 170 °C |
| CCCOC(Cc1ccc(OCCc2nc(C(C)(C)C)oc2C)c2ccccc12)C(=O)O (stereo not given) | 135 to 137 °C |
| N#Cc1ccc(-c2ccc(-c3ccc(C#N)o3)cc2)cc1 | 216 to 218 °C |
| O=C(O)c1ccc(CNC(=O)C(CS)Cc2ccccc2)cc1 (stereo not given) | 156 to 159 °C |
| CC(NC(=O)NO)c1ccc2ccccc2c1 (stereo not given) | 156 to 157 °C |
| O=C(O)c1cc(Br)ccc1NCCC=C1c2ccccc2CCc2ccccc21 | 226 to 227 °C |
| COC(=O)c1ccc(Cl)c(C2(O)C(=O)N(Cc3ccc(Cl)cc3OC)c3ccc(Cl)cc32)c1 (stereo not given) | 205 °C |
| CC(=O)n1cc(C#N)c(-c2ccc(F)c(Cl)c2F)c1 | 182 to 183 °C |
| O=C(Cl)C=Cc1ccc(Cl)cc1 | 78 to 80 °C |
| O=C(c1ccc(Cl)cc1)c1cc([N+](=O)[O-])ccc1N1CCC(O)CC1 | 142 °C |
| CC(NC1=NS(=O)(=O)c2ccc(Cl)cc2N1)C(C)(C)C (stereo not given) | > 220 °C |
| COC(=O)CSCCCCN(c1cnc(-c2ccccc2)c(-c2ccccc2)n1)C(C)C | 64 to 67 °C |
| C=CCOc1ccccc1OCCNCC(O)COc1cccc2c1CC(=O)N2 (stereo not given) | 148 to 149 °C |
| C=CCCC(O)C(C)(C)N1COC(C)=C(c2ccccc2)C1=O (stereo not given) | 74 to 75 °C |
| Nc1noc(C23CCCN(CC2)C3)n1 (stereo not given) | 197 to 199 °C |
| Cc1cc(C2=NN(C(=S)Cl)[C@H](C)Cc3cc4c(cc32)OCO4)cc(C)c1[N+](=O)[O-] | 216 °C |
| c1ccc(CCN2CCC(Nc3nc4ccccc4n3CCc3cccs3)CC2)cc1 | 118 °C |
| Cc1nnc2nc(-c3ccccc3)ccn12 | 303 to 306 °C |
| Cc1cccc(-c2nc(-c3ccc(S(C)(=O)=O)cc3)sc2-c2ccnc(S(=O)(=O)c3ccccc3)c2)c1 | 126 to 128 °C |
| CCOC(=O)CC1(CC)OCCc2c1[nH]c1c(C)cccc21 (stereo not given) | 77 to 78 °C |
| Cc1oc(-c2ccccc2)nc1COc1cccc(CO)c1 | 101 to 102 °C |
| COC(=O)c1ccc(COc2ccc(-c3ncccc3S(=O)(=O)N(C(=O)OCC(C)C)c3ncc(C)nc3OC)cc2)cc1 | 134 to 135 °C |
